Assay results taken from patent US6664039B1, “Methods and compositions for modulating neurodegeneration” (California Institute of Technology, priority 1998, dated 2003).
“Also recorded” adds a separate entry of the source.

Assays:
bubblegum mutant flies [1] = test: Lifespan of bubblegum mutant flies; assay type: in vivo, Drosophila; details: male mutant flies treated with oil from larval stage
Method: Mutagenesis and screen. Drosophilia lines carrying P(lacZ, w+) were screened for mutations causing reduced lifespan at 29° C.
(§1) To determine whether similar dietary treatment can reduce the level of C26 and/or prevent the pathology seen in bubblegum, 2.5% of GTO oil was added to the normal corn meal-yeast-agar medium. […] However, knowing that oil treatment in ALD was not able to prevent the progression of the disease once patients had shown neurological symptoms, we decided to treat mutant flies with the oil at pre-adult stages. First instar larvae were raised in the oil-containing medium until eclosion and the adult flies were then transferred into fresh medium, still containing the oil, changed every 3 days.

bubblegum mutant flies [2] = test: Brain (lamina) degeneration in bubblegum mutant flies by light and electron microscopy; assay type: in vivo, Drosophila; details: for degeneration: male mutant flies raised in oil-containing medium from first instar larvae, 15 day-old adults
Method: Tissue preparation for microscopy. Fly heads were prepared by fixation in 1% paraformaldehyde+1% glutaraldehyde, postfixation in 1% osmium tetroxide, dehydration in an ethanol series, and embedding in Epon 812. For light microscopy, […] were stained with 1% toludine blue 1% Borax. For electron microscopy, ultrathin sections (80 nm) were examined with a Philips 201 electron microscope at 60 kV.
as §1

C26 = details: ALD, feeding GTO oil, within 4 months; cited from earlier work
VLCFAs = test: Assay of very long chain fatty acids by gas chromatography in bubblegum flies; assay type: in vivo, Drosophila; details: male mutant flies treated from larval stage, 15 days old, compared with parental strain
Method: Assay of very long chain fatty acids by gas chromatography. To determine whether bubblegum has an accumulation of VLCFAs, fatty acid analysis by gas chromatography was performed on 15 day old flies, comparing homozygous mutant flies with those of the parent strain from which bubblegum was derived.
Extracts of whole male or female flies were used for purification and methylation of fatty acids. Gas chromatography was performed with a HP-5MS column (30 m×0.25 mm, 0.25-μm film thickness) and mass spectrometry was used to analyze the fatty acid methyl esters. Identification and measurement of fatty acid concentrations were based on an oil reference standard (NHI-F) from Sigma Co. and the C15 added as an internal standard.
as §1

bubblegum mutant flies [3] = test: Countercurrent phototaxis test; assay type: in vivo, Drosophila; details: 5 day old bubblegum raised with the oil from the larval stage
Excerpt: Phototactic analysis. In ALD, visual loss is on of the clinical symptoms, and anatomical analysis has shown abnormalities of the optic nerve and degeneration of ganglion cell layer. Flies transformed with P-elements expressing eye pigment, as is the case for bubblegum, are phototactic. A countercurrent phototaxis test was used to examine the visual behavior of bubblegum. […] Therefore, the oil treatment can prevent the biochemical, structural, and physiological defects caused by the mutation.
Flies were placed in a countercurrent distribution apparatus and responses to light were analyzed. Each numbered tube represents the number of positive responses in a total of 5 trials. In control tests for the from-light response, neither group of flies moved away from light.

CCCCCCCC/C=C\CCCCCCCC(=O)OCC(COC(=O)CCCCCCC/C=C\CCCCCCCC)OC(=O)CCCCCCC/C=C\CCCCCCCC [GTO, glyceryl trioleate]
lifespan (bubblegum mutant flies [1]): recovered | onset of brain degeneration (bubblegum mutant flies [2]; adult mutant flies transferred to medium with 2.5% GTO oil, fed 15 days following emergence): reduced only slightly | age-dependent degeneration phenotype (bubblegum mutant flies [2]; homozygous females fed the oil): similarly prevented | degeneration (bubblegum mutant flies [2]): largely prevented; also recorded: prevented the onset of degeneration | degeneration (bubblegum mutant flies [2]; listed as GTO oil): largely been prevented | reduction of the level of C26 in plasm (C26): about 50% | levels of VLCFAs (VLCFAs): becoming normal | levels of VLCFAs (VLCFAs; listed as GTO oil): reduced to normal | phototactic response (response to the light) (bubblegum mutant flies [3]): greatly enhanced response to the light | phototactic response (response to the light) (bubblegum mutant flies [3]; listed as oil): showed a phototactic response
